Laboratory results reported in article PMC8621570, “Mechanistic Studies of Antibiotic Adjuvants Reducing Kidney’s Bacterial Loads upon Systemic Monotherapy” (Pharmaceutics, 2021).
≈ marks a conversion by molar mass, not a printed value. Where two headings read alike, the source gives them in different places. Where a SMILES comes first, the peptide text is derived from it. [ ]: non-standard residue; d: D form. The star is where a group is joined. Myristoyl = CCCCCCCCCCCCCC(=O)*; 12Ado = NCCCCCCCCCCCC(=O)O; Orn = NCCC[C@H](N)C(=O)O

What was measured:
12 GNB strains [1] = format: cell-based; details: OD measurements, mean of 12 GNB strains
Procedure: (§1) Bacteria:Escherichia coli strains: 25922 and 35218 (ATCC, Manassas, VA, USA), 14182 (clinical isolate), Ag100 and Ag100A [34] (ΔacrAB) are two K-12 isogenic mutantsand the engineered mutant ML-35p. Additional ESKAPE species tested: Klebsiella pneumoniae strains 1287 and 224 (clinical isolates), Acinetobacter baumannii ATCC strain 19606, Pseudomonas aeruginosa ATCC strains 9027 and 27853. Bacteria were grown in Luria–Bertani (LB) broth (0.5% NaCl, 0.5% yeast extract, 1% tryptone, pH = 7), except for E. coli ML-35p that was grown in tryptic-soy broth.
(§2) Peptide self-assembly was determined by static light scattering measurements as described. Hemolysis was determined by measuring hemoglobin leakage from washed human RBCs, as described. Minimal inhibitory concentration (MIC) was determined using the microdilution assay, as described. Bactericidal kinetics were determined by mixing bacteria with rifampin, OAC, or their combinations, as described. Data were obtained from three independent assays performed in duplicate.

[2] = Hydrophobicity by reversed phase HPLC elution; format: physicochemical; details: % acetonitrile required for elution in reversed phase HPLC, C18 column; rounded to nearest whole number
[3] = Peptide self-assembly (critical aggregation concentration) by static light scattering; format: physicochemical; details: light scattering in PBS
Procedure: as §2

E. coli 25922 = format: cell-based, Escherichia coli; details: 25922, 24 h
Procedure: Sensitization to plasma components was assessed by mixing bacteria with serial two-fold OAC dilutions in 80% human plasma (Israel Blood Bank) or plasma from the specified species (Technion preclinical research authority or VetSource), as described. Data were obtained from three independent experiments.
Figure 3 Animal plasma antibacterial activities against E. coli 25922. (a) Dose-dependent reduction of colony forming units (CFU) as determined 24 h after exposure to C14(ω5)OOc10O in human plasma (80% final plasma concentration in PBS). Values represent the mean ± SD obtained from three individual plasma donors (mean inoculum was 1.6 ± 0.8 × 10^6 CFU/mL). (b) Time-kill kinetics determined upon E. coli exposure to 0, 2.5, 5, and 10 µM C14(ω5)OOc10O (from top to bottom, respectively). Values represent the mean ± SD obtained from two individual plasma samples, each subjected to two independent assays. Panels (c–f), respectively, show the OAC’s concentration-dependent activities in plasma samples obtained from pig, cat, sheep, and dog. The three dashed horizontal lines respectively represent the average CFU count of the vehicle control (upper line), the inoculum (middle line), and the limit of detection (lower line), i.e., log10 50 CFU/mL = 1.69. Green stars (*) denote lack of detectable CFU.

[4] = system: washed human erythrocytes; format: cell-based; details: red cells of human, 3 h
Procedure: as §2

Escherichia coli 25922 = experiment: Sensitization to rifampin, checkerboard method; format: cell-based; details: Escherichia coli, 25922, E. coli, LB
Procedure: (§3) Bacterial sensitization: Sensitization to antibiotics was determined using the checkerboard method in presence of sub-MIC OAC (2.5, 5, and 10 μM), as described. The synergistic effect of the combinations was expressed in terms of the Sensitization Factor (SF), where SF = (MIC antibiotic alone)/(MIC antibiotic upon combination). Data were obtained from three independent assays performed in duplicate.
(§4) Figure 4 Hydrophobicity dependence of antibiotics potentiation by lipopeptide analogs. Sensitization of GNB to rifampin and erythromycin (upper and lower panel, respectively) was assessed by MIC experiments performed in LB medium, in presence or absence of an OAC analog whose A2 position was gradually shortened (from c10 to c6). Pseudomonas aeruginosa 27853 (Pa, blue), Klebsiella pneumoniae 1287 (Kp, green), Escherichia coli 25922 (Ec, red), and Acinetobacter baumannii 19606 (Ab, black).

Klebsiella pneumoniae = experiment: Sensitization to rifampin, checkerboard method; format: cell-based; details: Klebsiella pneumoniae, K. pneumoniae, LB
Procedure: as §3, §4

[5] = system: Pseudomonas aeruginosa 27853; experiment: Sensitization to rifampin, checkerboard method; format: cell-based; details: Pseudomonas aeruginosa, 27853, P. aeruginosa, LB
Procedure: as §3, §4

[6] = system: Acinetobacter baumannii 19606; experiment: Sensitization to rifampin, checkerboard method; format: cell-based; details: Acinetobacter baumannii, 19606, A. baumannii, LB
Procedure: as §3, §4

P. aeruginosa 27853 = experiment: Excisional skin wound infection model, topical treatment; format: in vivo, mouse; details: hypromellose gel 1% (w/v), 4 h treatment, mice n = 3 per group
Procedure: Animals: All animal studies were performed using male ICR mice (25 ± 2 gr). The Technion Animal Care and Use committee approved all procedures, care, and handling of animals. Ethics approval codes: IL0800519, IL0640421, IL0550618, IL1811217.
For efficacy assessments, three infection models were used including one with topical treatment and two with systemic treatment. • Excisional skin wound infection model: mice were anesthetized by intraperitoneal administration of a mixture of ketamine 100 mg/kg and xylazine 5 mg/kg in PBS and their backs shaved with electric clippers. The following day mice were similarly anesthetized and were administrated (S.C) 0.05 mg/kg buprenorphine (for pain relief). A 5 mm diameter piece of skin was removed from the middle of the shaved back, with sterile biopsy punch resulting in a full-thickness injury. A total of 20 µL of a mid-logarithmic culture, containing 5 × 10^6 CFU P. aeruginosa 27853 were applied on the wound. Then, 15 min after inoculation, about 50 µL of hypromellose gel (prepared as described) containing OAC, antibiotic, or their combination were applied on the skin and covered with a piece of medical tape. As a control, the vehicle (drug-free gel) was similarly applied on the skin. After a treatment period of 4 h, about 8 mm diameter of skin surrounding the infected area was removed, suspended in PBS, homogenized, serially diluted 10-fold, and plated for CFU enumeration. The number of viable bacteria was determined after overnight incubation at 37 °C. The lower limit of detection was 50 CFU/wound. • Thigh infection model (TI): mice were inoculated intramuscularly with 1 × 10^6 CFU/mouse of mid-logarithmic E. coli 25922 and treated subcutaneously 1 and 3 h after inoculation. Mice were sacrificed 24 h after infection, their thighs excised, homogenized, serially diluted 10-fold, and plated for CFU enumeration. The number of viable bacteria was determined after overnight incubation at 37 °C. […] The number of viable bacteria was determined after overnight incubation at 37 °C. […]

[7] = system: E. coli ΔacrAB mutant AG100A; experiment: microbe, parasite or virus in culture; format: cell-based, Escherichia coli
Procedure: as §1, §2
(§5) The wild-type E. coli strain AG100 and its isogenic ΔacrAB mutant AG100A were used to determine the MIC of OACs and of two known acrAB-TolC substrates: the AMP LL-37 and the macrolide antibiotic erythromycin that are normally inefficient against GNB.

E. coli strain AG100 = experiment: microbe, parasite or virus in culture; format: cell-based, Escherichia coli
Procedure: as §1, §2, §5

[8] = system: extremely resistant GNB strains; experiment: Erythromycin MIC in LB medium against GNB; format: cell-based; details: greater than highest tested concentration, read-out: Erythromycin MIC alone
Procedure: as §3, §4

12 GNB strains [9] = details: OD measurements, mean of 12 GNB strains, reference peptide; cited from earlier work
Source text: Table 1 Biophysical attributes of relevant lipopeptide analogs. | column: MIC (µM) / LB ^a Medium

[10] = light scattering in PBS; reference peptide; cited from earlier work
Source text: Table 1 Biophysical attributes of relevant lipopeptide analogs. | column: CAC (µM)

[11] = % acetonitrile required for elution in reversed phase HPLC, C18 column; rounded to nearest whole number; reference peptide; cited from earlier work
Source text: Table 1 Biophysical attributes of relevant lipopeptide analogs. | column: H (%)

[12] = no adjuvant, read-out: Rifampin MIC alone
[13] = with 10 μM C14(ω5)OOc10O, read-out: Rifampin MIC in presence of adjuvant
[14] = with C14(ω5)OOc10O, read-out: Rifampin MIC in presence of adjuvant

| Structure (SMILES) | MIC, LB medium (12 GNB strains [1]) [µM] | H, hydrophobicity [2] [%] | CAC, critical aggregation concentration [3] [µM] | MIC, human plasma (E. coli 25922) [µM] | HC50, concentration causing 50% hemolysis compared to water [4] [µM] | further results |
| --- | --- | --- | --- | --- | --- | --- |
| CCCCCCCCCCCCCC(=O)N[C@@H](CCCN)C(=O)N[C@@H](CCCN)C(=O)NCCCCCCCCCC(=O)N[C@@H](CCCN)C(N)=O [C14OOc10O] | 12.5 to 25 | 53 | 45 ± 14 | 10 to 20 | 28 ± 2 | – |
| NCCC[C@H](NC(=O)CCCCCCCCCCCNC(=O)[C@H](CCCN)NC(=O)[C@@H](N)CCCN)C(N)=O [OOc12O] (H-[Orn][Orn][12Ado][Orn]-NH2) | >50 | 24 | >100 | >20 | >100 | – |
| CO[C@H]1/C=C/O[C@@]2(C)Oc3c(C)c(O)c4c(O)c(c(/C=N/N5CCN(C)CC5)c(O)c4c3C2=O)NC(=O)/C(C)=C\C=C\[C@H](C)[C@H](O)[C@@H](C)[C@@H](O)[C@@H](C)[C@H](OC(C)=O)[C@@H]1C [rifampin] | – | – | – | – | – | MIC (Escherichia coli 25922; [12]): 8 µg/mL; MIC (Escherichia coli 25922; [13]): 0.00025 µg/mL; MIC (Klebsiella pneumoniae; [12]): 32 µg/mL; MIC (Klebsiella pneumoniae; [14]): 0.0005 µg/mL; MIC [5, 12]: 32 µg/mL; MIC [5, 13]: 0.001 µg/mL; MIC [6, 12]: 2 µg/mL; MIC [6, 14]: 0.0005 µg/mL; Reduction of CFU count (P. aeruginosa 27853): 1.7 log10 units |
| CCCCC=CCCCCCCCC(=O)N[C@@H](CCCN)C(=O)N[C@@H](CCCN)C(=O)NCCCCCC(=O)N[C@@H](CCCN)C(N)=O [C14(ω5)OOc6O] | >50 | 47 | >100 | 5 (≈ 3.4 µg/mL) | >100 | – |
| CC[C@H]1OC(=O)[C@H](C)[C@@H](O[C@H]2C[C@@](C)(OC)[C@@H](O)[C@H](C)O2)[C@H](C)[C@@H](O[C@@H]2O[C@H](C)C[C@H](N(C)C)[C@H]2O)[C@](C)(O)C[C@@H](C)C(=O)[C@H](C)[C@@H](O)[C@]1(C)O [Erythromycin, reference compound] | – | – | – | – | – | MIC ([7]; Escherichia coli, read-out: MIC, Ag100A): 10.9 µM; MIC (E. coli strain AG100; Escherichia coli, wild-type E. coli AG100): 174 µM; MIC [8]: > 512 µg/mL |
| CCCCCCCCCCCCCC(=O)N[C@@H](CCCN)C(=O)N[C@@H](CCCN)C(=O)NCCCCCCCCCCCC(=O)N[C@@H](CCCN)C(N)=O [C14OOc12O] (Myristoyl-[Orn][Orn][12Ado][Orn]-NH2) | 3 to 6 | 55 | 15 ± 1 | >20 | 14 ± 4 | MIC, Ag100A ([7]; isogenic ΔacrAB mutant AG100A): 3.1 µM; MIC (E. coli strain AG100; strain AG100): 3.1 µM |
| CCCCCCCCCCCCCC(=O)N[C@@H](CCCCN)C(=O)N[C@@H](CCCCN)C(=O)NCCCCCCCCCCCC(=O)N[C@@H](CCCCN)C(N)=O [C14KKc12K] (Myristoyl-KK[12Ado]K-NH2) | – | – | – | >20 | 12 ± 1 | MIC, LB medium (12 GNB strains [9]): 3 to 6 µM; CAC, critical aggregation concentration [10]: 20 ± 5 µM; H, hydrophobicity [11]: 55% |
| CCCCC=CCCCCCCCC(=O)N[C@@H](CCCN)C(=O)N[C@@H](CCCN)C(=O)NCCCCCCCC(=O)N[C@@H](CCCN)C(N)=O [C14(ω5)OOc8O] | >50 | 48 | >100 | 2.5 to 5 | >100 | – |
